Measured values published in patent US20170105981A1, “METHODS FOR STABILIZING HYPOXIA INDUCIBLE FACTOR-2 ALPHA AS A METHOD FOR TREATING CANCER” (The Ohio State Innovation Foundation, priority 2011, published 2017).

Assays:
A2780/CP tumor cells = experiment: A2780/CP ovarian tumor xenograft model; type: in vivo, female athymic nude mice
Description: The compound tested, {[5-(3-fluorophenyl)-3-hydroxypyridine-2-carbonyl]-amino} acetic acid, was formulated in a 0.25% hydroxypropyl methyl cellulose/0.1% Tween™ 80 solution in reverse osmosis deionized water. The test compound was reconstituted at concentrations of 1.8 and 3.6 mg/ml as instructed on each vial to deliver doses of 18 and 36 mg/kg, respectively, at a […] dose volume. Solutions of the test compound were prepared weekly and stored at 4° C. protected from light. All formulations were removed from the refrigerator and stirred for 30 minutes before dosing, and continuously stirred during dosing.
The vehicle control was prepared by making a solution of 0.25% hydroxypropyl methyl cellulose/0.1% Tween™ 80 solution in reverse osmosis deionized water.
A2780/CP ovarian tumor cell line was received from Sigma-Aldrich (St. Louis, Mo.). Cultures were maintained in RPMI 1640 (Hyclone, Logan, Utah), supplemented with 10% fetal bovine serum, and housed in a 5% CO2 atmosphere. The cultures were expanded in tissue culture flasks at a 1:3 split ratio until a sufficient yield of cells was achieved.
Female athymic nude mice were supplied by Harlan (Indianapolis, Ind.). Mice were received at four to five weeks of age, 12-15 grams in weight, and were acclimated for seven days prior to handling. The mice were housed in microisolator cages and maintained under specific pathogen-free conditions. The mice were fed Tekland Global Diet™ 2920x irradiated laboratory animal diet (Harlan, Indianapolis, Ind.) and autoclaved water was freely available.
Sixty female mice were inoculated subcutaneously in the right flank with 0.1 ml of a 50% RPMI/50% Matrigel™ (BD Biosciences, Bedford, Mass.) mixture containing a suspension of A2780/CP tumor cells (approximately 1.0×10^7 cells/mouse).
Three days following inoculation, tumors were measured using calipers and tumor weight was calculated using the animal study management software. Thirty mice with tumor sizes of 80.4-170.6 mg were randomized into three groups often mice (Groups 1-3) by random equilibration. Body weights were recorded when the mice were randomized and were taken twice per week thereafter in conjunction with tumor measurements.
Animals were treated until the study endpoint. Group I received only vehicle (control). Group II was given doses of 1.8 mg/mL {[5-(3-fluorophenyl)-3-hydroxypyridine-2-carbonyl]-amino} acetic acid while Group III was given doses of 3.6 mg/mL {[5-(3-fluorophenyl)-3-hydroxypyridine-2-carbonyl]-amino} acetic acid. All doses were given via oral administration (PO). The administered volume of each dose was approximately 1 mL/100 g body weight of animal.
Tumor mass (mg) was determined using the formula:
where “a” is the largest diameter and “b” is the smallest diameter. Measurements were made using calipers. The mean tumor size when study began was 100-125 mg. On day one of the study, animals were randomly assigned to the three groups described above.
Tumors were collected from Groups 1-3 of the main study when individual tumors reached a tumor weight of ≧2000 mg by using the procedure above. Tumor size measurements and animal body weight were taken twice weekly.

[1] = test system: endothelial cell marker CD31; experiment: Tumor vascularity by CD31 immunohistochemistry in melanoma-bearing mice; type: in vivo; settings: mice treated with the control antibody; p=0.022; FIG. 14B
[2] = test system: phosphoglycerate kinase (PGK) mRNA; experiment: PGK mRNA expression (qPCR) in HIF-1α−/− fibroblasts; type: cell-based, murine; settings: hypoxic conditions (1% O2), 1, 10 and 100 μM, vs. hypoxia control, FIG. 2B
Description: Total RNA was isolated from tissues and cells by using TRIzol™ Reagent (Invitrogen) and the RNeasy kit (Qiagen), respectively. 1 μg RNA was used for reverse transcription using SuperScript II First-Strand Synthersis System (Invitrogen). cDNA's were amplified in a SYR Green or TaqMan Universal Master Mix (Applied Biosystems). Quantitative PCR (qPCR) was performed on ABI Prism 7700 sequence detection system. PCR conditions are: 10 min at 95° C., 40 cycles of 15 seconds at 95° C. and 1 minute at 60° C. The relative amount of mRNA was calculated after normalization to β-actin.
Cells were cultured in DMEM (#11965-092, Invitrogen) supplemented with 10% fetal bovine serum (Invitrogen), 100 U/mL penicillin and […] streptomycin. For glucose deprivation, DMEM without glucose (#11966-025, Invitrogen) was used.
Mouse embryonic fibroblasts (MEFs) were isolated from E12.5 embryos and immortalized by stable transfection with SV40 large T antigen.

O=C(O)CNC(=O)c1ncc(-c2cccc(F)c2)cc1O [disclosed HIF-2α stabilizer, {[5-(3-Fluorophenyl)-3-hydroxypyridine-2-carbonyl]amino} acetic acid]
Mean Tumor Mass (A2780/CP tumor cells; 18 mg/kg QD PO, study day 1): 119.6 mg | Median Tumor Mass (A2780/CP tumor cells; 18 mg/kg QD PO, study day 1): 121.3 mg | Mean Tumor Mass (A2780/CP tumor cells; 18 mg/kg QD PO, study day 4): 188.2 mg | Median Tumor Mass (A2780/CP tumor cells; 18 mg/kg QD PO, study day 4): 191.0 mg | No. Surviving Animals (A2780/CP tumor cells; 18 mg/kg QD PO, study day 4): 10 | Wgt % change (A2780/CP tumor cells; 18 mg/kg QD PO, study day 4): −0.31% | Mean Tumor Mass (A2780/CP tumor cells; 18 mg/kg QD PO, study day 8): 326.9 mg | Median Tumor Mass (A2780/CP tumor cells; 18 mg/kg QD PO, study day 8): 243.8 mg | No. Surviving Animals (A2780/CP tumor cells; 18 mg/kg QD PO, study day 8): 10 | Wgt % change (A2780/CP tumor cells; 18 mg/kg QD PO, study day 8): 4.40% | Mean Tumor Mass (A2780/CP tumor cells; 18 mg/kg QD PO, study day 11): 682.8 mg | Median Tumor Mass (A2780/CP tumor cells; 18 mg/kg QD PO, study day 11): 528.0 mg | No. Surviving Animals (A2780/CP tumor cells; 18 mg/kg QD PO, study day 11): 10 | Wgt % change (A2780/CP tumor cells; 18 mg/kg QD PO, study day 11): 6.02% | Mean Tumor Mass (A2780/CP tumor cells; 18 mg/kg QD PO, study day 16): 2508.0 mg | Median Tumor Mass (A2780/CP tumor cells; 18 mg/kg QD PO, study day 16): 1826.2 mg | No. Surviving Animals (A2780/CP tumor cells; 18 mg/kg QD PO, study day 16): 10 | Wgt % change (A2780/CP tumor cells; 18 mg/kg QD PO, study day 16): 16.40% | Mean Tumor Mass (A2780/CP tumor cells; 18 mg/kg QD PO, study day 19): 2647.4 mg | Median Tumor Mass (A2780/CP tumor cells; 18 mg/kg QD PO, study day 19): 3030.1 mg | No. Surviving Animals (A2780/CP tumor cells; 18 mg/kg QD PO, study day 19): 6 | Wgt % change (A2780/CP tumor cells; 18 mg/kg QD PO, study day 19): 16.82% | Mean Tumor Mass (A2780/CP tumor cells; 18 mg/kg QD PO, study day 22): 1761.6 mg | Median Tumor Mass (A2780/CP tumor cells; 18 mg/kg QD PO, study day 22): 1761.6 mg | No. Surviving Animals (A2780/CP tumor cells; 18 mg/kg QD PO, study day 22): 1 | Wgt % change (A2780/CP tumor cells; 18 mg/kg QD PO, study day 22): 19.43% | Mean Tumor Mass (A2780/CP tumor cells; 18 mg/kg QD PO, study day 25): 2838.3 mg | Median Tumor Mass (A2780/CP tumor cells; 18 mg/kg QD PO, study day 25): 2838.3 mg | No. Surviving Animals (A2780/CP tumor cells; 18 mg/kg QD PO, study day 25): 1 | Wgt % change (A2780/CP tumor cells; 18 mg/kg QD PO, study day 25): 19.43% | Mean Tumor Mass (A2780/CP tumor cells; 36 mg/kg QD PO, study day 1): 120.3 mg | Median Tumor Mass (A2780/CP tumor cells; 36 mg/kg QD PO, study day 1): 123.3 mg | Mean Tumor Mass (A2780/CP tumor cells; 36 mg/kg QD PO, study day 4): 186.4 mg | Median Tumor Mass (A2780/CP tumor cells; 36 mg/kg QD PO, study day 4): 182.8 mg | No. Surviving Animals (A2780/CP tumor cells; 36 mg/kg QD PO, study day 4): 10 | Wgt % change (A2780/CP tumor cells; 36 mg/kg QD PO, study day 4): −0.41% | Mean Tumor Mass (A2780/CP tumor cells; 36 mg/kg QD PO, study day 8): 312.8 mg | Median Tumor Mass (A2780/CP tumor cells; 36 mg/kg QD PO, study day 8): 323.4 mg | No. Surviving Animals (A2780/CP tumor cells; 36 mg/kg QD PO, study day 8): 10 | Wgt % change (A2780/CP tumor cells; 36 mg/kg QD PO, study day 8): 4.04% | Mean Tumor Mass (A2780/CP tumor cells; 36 mg/kg QD PO, study day 11): 708.1 mg | Median Tumor Mass (A2780/CP tumor cells; 36 mg/kg QD PO, study day 11): 830.4 mg | No. Surviving Animals (A2780/CP tumor cells; 36 mg/kg QD PO, study day 11): 10 | Wgt % change (A2780/CP tumor cells; 36 mg/kg QD PO, study day 11): 5.48% | Mean Tumor Mass (A2780/CP tumor cells; 36 mg/kg QD PO, study day 16): 2354.5 mg | Median Tumor Mass (A2780/CP tumor cells; 36 mg/kg QD PO, study day 16): 2441.8 mg | No. Surviving Animals (A2780/CP tumor cells; 36 mg/kg QD PO, study day 16): 10 | Wgt % change (A2780/CP tumor cells; 36 mg/kg QD PO, study day 16): 15.86% | Mean Tumor Mass (A2780/CP tumor cells; 36 mg/kg QD PO, study day 19): 1858.8 mg | Median Tumor Mass (A2780/CP tumor cells; 36 mg/kg QD PO, study day 19): 1568.0 mg | No. Surviving Animals (A2780/CP tumor cells; 36 mg/kg QD PO, study day 19): 4 | Wgt % change (A2780/CP tumor cells; 36 mg/kg QD PO, study day 19): 12.79% | Mean Tumor Mass (A2780/CP tumor cells; 36 mg/kg QD PO, study day 22): 2456.9 mg | Median Tumor Mass (A2780/CP tumor cells; 36 mg/kg QD PO, study day 22): 2384.6 mg | No. Surviving Animals (A2780/CP tumor cells; 36 mg/kg QD PO, study day 22): 3 | Wgt % change (A2780/CP tumor cells; 36 mg/kg QD PO, study day 22): 8.50% | rate of tumor mass growth (A2780/CP tumor cells; 18 and 36 mg/kg QD PO vs control group, FIGS. 7 to 9, Table I): significantly reduced | tumor vascularity (CD31) [1]: decreased tumor vascularity | PGK mRNA (relative amount) [2]: dramatic reduction
